From patent publication US6686462B2 (The Regents of the University of California, priority 1997, dated 2004)
“And” between values parts separate entries of the source, which are not always exact repeats. Identical values can stand only once. Counter-ions that a name gives are not always drawn. Like-named read-outs stand apart in the source and are kept apart here.

Tests used:
LAI-E89K = experiment: HIV plaque reduction assay, PFA-resistant strain; assay type: cell-based, HIV-1
Method: (§2) Compounds of the invention were tested in a plaque-forming assay of HIV-1 proliferation in a human CD4+lymphocytic cell line (HT-4) by the procedures described in K. Y. Hostetler et al., J. Biol. Chem., 265:6112-6117 (1990); and K. Y. Hostetler et al., J. Biol. Chem., 266:11714-11717 (1991). […] (EC50 is concentration to reduce HIV plaques by 50% and expressed as mean ±standard deviation).
(§3) The assays were conducted by procedures of Example 27 above and as disclosed in K. Y. Hostetler et al., J. Biol. Chem., 265:6112-6117 (1990); and K. Y. Hostetler et al., J. Biol. Chem., 266:11714-11717 (1991).

HIV-1LAI = experiment: HIV plaque reduction assay, wild-type strain; assay type: cell-based; settings: Human immunodeficiency virus 1
Method: as §2, §3

HIV-1 [1] = experiment: microbe, parasite or virus in culture; settings: for EC50: Human immunodeficiency virus 1, read-out: EC50(HIV-1)
From the text: (§4) (EC50 is concentration to reduce HIV plaques by 50% and expressed as mean ±standard deviation).

A018-post [2] = settings: AZT-resistant, AZT data from Larder et al., Science 1989; cited from earlier work
[3] = Toxicity in HT4-6C cells by visual grading of cell morphology; settings: human
Method: (§1) Selected compounds of the invention and PFA were tested for activity in HT4-6C cell by procedures disclosed in B. A. Larder et al., Science, 243:1731-1734 (1989). […] The TC50 values were determined using the following visual grading scale after 3 days to exposure to the tested drug compound: 4—normal appearance; 3—slight reduction of normal cells; 2-50% of cells appear normal; 1—sparse number of normal appearing cells; 0—no living cells. Values reported in the Table below are mean ±standard deviation.

HIV-1 [4] = settings: for reduction of the number of viral plaques: at 1 μM, the highest concentration achievable in the growth medium
From the text: as §4

A018-post [5] = experiment: HIV plaque reduction assay, AZT-resistant strain; assay type: cell-based, HIV-1; settings: Human immunodeficiency virus 1
Method: as §2, §3

HT4-6C cells = experiment: Toxicity in HT4-6C cells by visual grading of cell morphology; settings: for Selectivity Index: TC50/EC50, HT4-6C cells
Method: as §1

[6] = test system: human T-Lymphoblastic Leukemia Cells (CEM cells); experiment: Toxicity in CEM cells by propidium iodide staining and flow cytometry; assay type: cell-based; settings: for Selectivity Index: TC50 in CEM cells / EC50; for CC50: rapidly dividing CEM cells, viable cell numbers, read-out: TC50 (the source's name)
Method: TC50 values were also assessed by exposing rapidly dividing human T-Lymphoblastic Leukemia Cells (CEM cells) to selected compounds of the invention and PFA. Viable cell numbers were determined by propidium iodide staining and fluorescent flow cytometry according to procedures disclosed in Dangl et al., Cytometry, 2:395-401 (1982).

## CCCCCCCCCCCCCCCCCCOC(=O)P(=O)(O)OC (as salt: sodium) [Example 8, Sodium Methyl 1-octadecyloxycarbonylphosphonate]
other
  melting point: 92 to 93 °C

## CCCCCCCCCCCCCCCCCCCCOC(=O)P(=O)(O)OC (as salt: sodium) [Example 9, Sodium Methyl 1-eicosanyloxycarbonylphosphonate]
other
  melting point: 95 to 96 °C

## Cc1cn([C@H]2C[C@H](N=[N+]=[N-])[C@@H](CO)O2)c(=O)[nH]c1=O [AZT, 3′-azido-3′-deoxythymidine]
LAI-E89K; Human immunodeficiency virus 1
  EC50: 0.009 ± 0.005 µM
HIV-1LAI
  EC50: 0.013 ± 0.006 µM
HIV-1 [1]
  EC50: 0.007 µM
A018-post [2]
  EC50: 4 µM and 2.3 µM

## CCCCCCCCCCCCCCCCCCOC(=O)P(=O)(O)OC [Example 8, Sodium Methyl 1-octadecyloxycarbonylphosphonate]
[3]
  CC50 at 3 days: 10 µM
HIV-1 [4]; HT-4 cells
  reduction of the number of viral plaques: 35%

## CCCCCCCCCCCCCCCCCCCCOC(=O)P(=O)(O)OC [Example 9, Sodium Methyl 1-eicosanyloxycarbonylphosphonate]
[3]
  CC50 at 3 days: 10 µM
HIV-1 [4]; HT-4 cells
  reduction of the number of viral plaques: 35%

## CCCCCCCCCCCCCCCCCCOC(=O)O[PH](=O)OC[C@H]1O[C@@H](n2cc(C)c(=O)[nH]c2=O)C[C@@H]1N=[N+]=[N-] (some centres unmarked) [Example 20, 3′-azido-3′-deoxy-5′-O-(1-octadecyloxycarbonyloxyphosphinyl)thymidine]
other
  melting point: 224 °C (dec.)

## CCCCCCCCCCCCCCCCCCOC(=O)P(=O)(O)OC[C@H]1O[C@@H](n2cc(C)c(=O)[nH]c2=O)C[C@@H]1N=[N+]=[N-] [Example 20]
LAI-E89K; Human immunodeficiency virus 1
  EC50: 0.13 ± 0.14 µM
HIV-1LAI
  EC50: 0.1 ± 0.15 µM
A018-post [5]
  EC50: 0.3 ± 0.32 µM
[3]
  CC50 at 3 days: 10 µM
HT4-6C cells
  Selectivity Index: 100
[6]
  Selectivity Index: 280
  CC50: 28 µM

## CCCCCCCCCCCCCCCCCCCCOC(=O)O[PH](=O)OC[C@H]1O[C@@H](n2cc(C)c(=O)[nH]c2=O)C[C@@H]1N=[N+]=[N-] (some centres unmarked) [Example 21]
other
  melting point: 230 °C (dec.)

## CCCCCCCCCCCCCCCCCCCCOC(=O)P(=O)(O)OC[C@H]1O[C@@H](n2cc(C)c(=O)[nH]c2=O)C[C@@H]1N=[N+]=[N-] [Example 21]
LAI-E89K; Human immunodeficiency virus 1
  EC50: 0.009 ± 0.007 µM
HIV-1LAI
  EC50: 0.14 ± 0.16 µM
A018-post [5]
  EC50: 0.53 ± 0.68 µM
HIV-1 [1]
  EC50: 0.05 µM
[3]
  CC50 at 3 days: 32 µM
HT4-6C cells
  Selectivity Index: 228
HT4-6C cells; at 0.1-1.0 μM
  cytotoxicity: slight to moderate
HT4-6C cells; at 10 and 100 μM
  cytotoxicity: significant
HT4-6C cells; toxic concentration over EC50(HIV-1)
  therapeutic selectivity: ca. 200
HIV-1 [4]; EC50(HIV-1) compared with AZT
  fold less active than AZT: 7 fold
HIV-1 [4]; EC50(HIV-1) compared with PFA
  times more active than PFA: 2,800 times
[6]
  Selectivity Index: 257
  CC50: 36 µM

## CCCCCCCCCCCCCCCCCCCCCCOC(=O)O[PH](=O)OC[C@H]1O[C@@H](n2cc(C)c(=O)[nH]c2=O)C[C@@H]1N=[N+]=[N-] (some centres unmarked) [Example 22, 3′-Azido-3′-deoxy-5′-O-(1-docosanyloxycarbonyloxyphosphinyl) thymidine]
other
  melting point: 238 °C (dec.)

## CCCCCCCCCCCCCCCCCCCCCCOC(=O)P(=O)(O)OC[C@H]1O[C@@H](n2cc(C)c(=O)[nH]c2=O)C[C@@H]1N=[N+]=[N-] [Example 22]
LAI-E89K; Human immunodeficiency virus 1
  EC50: 0.17 ± 0.11 µM
HIV-1LAI
  EC50: 0.32 ± 0.2 µM
A018-post [5]
  EC50: 0.77 ± 1.1 µM
[3]
  CC50 at 3 days: 320 µM
HT4-6C cells
  Selectivity Index: 1000
[6]
  Selectivity Index: 291
  CC50: 93 µM

## Cc1cn([C@H]2C[C@H](N=[N+]=[N-])[C@@H](COP(=O)(O)C(=O)O[C@H]3CC[C@@]4(C)C(=CC[C@H]5[C@@H]6CC[C@H]([C@H](C)CCCC(C)C)[C@@]6(C)CC[C@@H]54)C3)O2)c(=O)[nH]c1=O [Example 23]
HIV-1 [4]; read-out: IC50 (HIV-1), plaque-forming assay, HT-4 cells
  IC50: 0.25 µM

## CCCCCCCCCCCCCCCCOCCCOP(=O)(O)C(=O)OC[C@H]1O[C@@H](n2cc(C)c(=O)[nH]c2=O)C[C@@H]1N=[N+]=[N-] [Example 25]
LAI-E89K; LAI-E89K, PFA-resistant, mean ± SD of 3 experiments, Example 25: single test value, read-out: EC50
  EC50: 1.3 µM
[6]
  CC50: 65 µM

## O=C(O)P(=O)(O)O [PFA, phosphonoformic acid, reference compound]
LAI-E89K; Human immunodeficiency virus 1
  EC50: > 1000 µM
HIV-1LAI
  EC50: 133 ± 54 µM
A018-post [5]
  EC50: 65 ± 13 µM
HIV-1 [1]; Human immunodeficiency virus 1, read-out: IC50 (HIV-1)
  IC50: 133 µM
